# Experiments:
# Sbv333-ATA = molecular target: T1, Sbv333-ATA (Streptomyces odorifer, UniProt A0A7Y6F089); test: glycine oxidase (GO) coupled assay; acetophenone formation at […] nm; type: biochemical; settings: 2 mM amine, 50 mM HEPES pH 9.0, room temperature (GO assay)
# T1 construct: gene G6W59_16020; 6xHis-tagged, pETite vector, E. coli BL21(DE3) with GroES/GroEL, Ni-NTA (plus SEC for crystals); residues 1-459 described; dimer about 100 kDa by gel filtration; catalytic Lys289
# [1] = molecular target: Sbv333-ATA, (S)-selective amine transaminase from a Streptomyces strain (Streptomyces sp.); test: SEC; analytical gel filtration, single peak; methods describe a calibrated Superdex 200 pg HiLoad 16/600 column, 20 mM HEPES pH 9.0, 500 mM NaCl
# T1 sequence (A0A7Y6F089 entry or part of it): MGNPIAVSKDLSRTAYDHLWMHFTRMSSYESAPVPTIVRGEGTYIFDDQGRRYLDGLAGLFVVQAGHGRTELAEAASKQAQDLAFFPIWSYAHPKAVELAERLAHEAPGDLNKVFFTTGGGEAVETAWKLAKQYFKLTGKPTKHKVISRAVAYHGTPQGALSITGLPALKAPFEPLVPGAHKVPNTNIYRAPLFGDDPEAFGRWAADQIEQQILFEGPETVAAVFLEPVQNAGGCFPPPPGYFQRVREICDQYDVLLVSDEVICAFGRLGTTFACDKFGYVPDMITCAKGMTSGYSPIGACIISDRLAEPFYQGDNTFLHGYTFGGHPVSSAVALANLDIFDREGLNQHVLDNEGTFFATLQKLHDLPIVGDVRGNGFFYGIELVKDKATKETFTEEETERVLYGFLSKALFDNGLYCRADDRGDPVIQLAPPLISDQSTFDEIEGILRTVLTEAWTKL
compound,measurement,setting,value
"C[C@H](N)c1ccccc1 [compound 1, (S)-methylbenzylamine]",glycine oxidase (GO) coupled assay; acetophenone formation at 245 nm,Sbv333-ATA,"The enzyme was active toward a diverse set of substrates, including (S)-methylbenzylamine ((S)-1)"
"Sbv333-ATA, (S)-selective amine transaminase from a Streptomyces strain (enzyme)",stoichiometry N,[1],2
